The source of these data is ChEMBL document CHEMBL3882736, “Modulation microtubules diseases; antiproliferative agents; antiinflamamtory agents” (2011).

Molecules are shown by their SMILES. Bounds are passed on as bounds.

Test [1] is described as follows: Cytotoxicity against human DU145 cells assessed as growth inhibition at 20 uM after 40 hrs by MTT assay relative to control. Format: functional. Conditions: DU-145, 40 h, read-out: GI. The method, boiled down: (§1)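 Growth inhibition was measured against control in human tumour cells taken in late log phase, each in its own medium with 10% FBS. Cells (90 µL per well, 1.1× final, 50000 to 200,000 cell/mL) were added to 10 µL of compound at 10× final in 96-well plates and incubated 40 hr at 37° C., 5% CO2. Readout used MTT for 6 hours, overnight lysis with SDS/HCl and absorbance at 590 nm.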
Background: Tetrazolium assays rely on reduction of a dye to a coloured formazan, in cell work by metabolically active cells.

For test [2], the target named is Tyrosine-protein kinase JAK2 (Homo sapiens) (UniProt O60674). The experiment in a line: Inhibition of TEL-fused JAK2 kinase domain (2994 to 3914 nucleotide) (unknown origin) expressed in mouse BaF3 cells assessed as decrease in cell growth at 20 uM after 40 hrs by MTT assay relative to control. Format: cell-based.
Sequence of Tyrosine-protein kinase JAK2 (Homo sapiens) (O60674 whole entry, the tested form may be a part): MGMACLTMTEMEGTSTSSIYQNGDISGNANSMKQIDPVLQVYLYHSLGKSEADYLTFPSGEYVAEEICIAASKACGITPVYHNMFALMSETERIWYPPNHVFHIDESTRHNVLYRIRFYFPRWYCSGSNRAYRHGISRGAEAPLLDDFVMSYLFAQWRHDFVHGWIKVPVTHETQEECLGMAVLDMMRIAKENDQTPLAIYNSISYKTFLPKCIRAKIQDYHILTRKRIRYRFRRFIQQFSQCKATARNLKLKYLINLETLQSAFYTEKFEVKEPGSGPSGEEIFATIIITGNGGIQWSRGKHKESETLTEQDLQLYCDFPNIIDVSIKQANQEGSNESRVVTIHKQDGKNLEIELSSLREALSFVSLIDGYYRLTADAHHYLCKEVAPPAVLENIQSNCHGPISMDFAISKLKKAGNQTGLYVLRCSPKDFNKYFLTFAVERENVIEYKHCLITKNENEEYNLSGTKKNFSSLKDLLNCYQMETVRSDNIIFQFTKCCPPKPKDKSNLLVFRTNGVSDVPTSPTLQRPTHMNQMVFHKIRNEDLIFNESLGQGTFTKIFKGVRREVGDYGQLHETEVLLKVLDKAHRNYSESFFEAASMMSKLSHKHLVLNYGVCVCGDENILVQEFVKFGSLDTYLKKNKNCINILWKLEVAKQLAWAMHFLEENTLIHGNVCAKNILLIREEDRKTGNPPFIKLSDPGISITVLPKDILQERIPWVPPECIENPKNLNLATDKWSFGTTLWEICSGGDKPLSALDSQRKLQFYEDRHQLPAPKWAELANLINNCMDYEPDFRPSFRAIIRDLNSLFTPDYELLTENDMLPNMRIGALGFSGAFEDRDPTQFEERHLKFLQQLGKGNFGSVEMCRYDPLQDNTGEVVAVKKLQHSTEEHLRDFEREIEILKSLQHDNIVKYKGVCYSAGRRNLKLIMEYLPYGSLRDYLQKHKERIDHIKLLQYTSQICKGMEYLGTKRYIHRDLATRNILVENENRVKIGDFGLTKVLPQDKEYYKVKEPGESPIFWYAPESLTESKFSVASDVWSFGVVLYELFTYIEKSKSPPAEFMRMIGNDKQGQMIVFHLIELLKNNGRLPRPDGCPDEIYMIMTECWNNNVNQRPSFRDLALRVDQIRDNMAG
Test [3] has as its target T1, Tyrosine-protein kinase JAK3 (Homo sapiens) (UniProt P52333).
T1 sequence (whole entry): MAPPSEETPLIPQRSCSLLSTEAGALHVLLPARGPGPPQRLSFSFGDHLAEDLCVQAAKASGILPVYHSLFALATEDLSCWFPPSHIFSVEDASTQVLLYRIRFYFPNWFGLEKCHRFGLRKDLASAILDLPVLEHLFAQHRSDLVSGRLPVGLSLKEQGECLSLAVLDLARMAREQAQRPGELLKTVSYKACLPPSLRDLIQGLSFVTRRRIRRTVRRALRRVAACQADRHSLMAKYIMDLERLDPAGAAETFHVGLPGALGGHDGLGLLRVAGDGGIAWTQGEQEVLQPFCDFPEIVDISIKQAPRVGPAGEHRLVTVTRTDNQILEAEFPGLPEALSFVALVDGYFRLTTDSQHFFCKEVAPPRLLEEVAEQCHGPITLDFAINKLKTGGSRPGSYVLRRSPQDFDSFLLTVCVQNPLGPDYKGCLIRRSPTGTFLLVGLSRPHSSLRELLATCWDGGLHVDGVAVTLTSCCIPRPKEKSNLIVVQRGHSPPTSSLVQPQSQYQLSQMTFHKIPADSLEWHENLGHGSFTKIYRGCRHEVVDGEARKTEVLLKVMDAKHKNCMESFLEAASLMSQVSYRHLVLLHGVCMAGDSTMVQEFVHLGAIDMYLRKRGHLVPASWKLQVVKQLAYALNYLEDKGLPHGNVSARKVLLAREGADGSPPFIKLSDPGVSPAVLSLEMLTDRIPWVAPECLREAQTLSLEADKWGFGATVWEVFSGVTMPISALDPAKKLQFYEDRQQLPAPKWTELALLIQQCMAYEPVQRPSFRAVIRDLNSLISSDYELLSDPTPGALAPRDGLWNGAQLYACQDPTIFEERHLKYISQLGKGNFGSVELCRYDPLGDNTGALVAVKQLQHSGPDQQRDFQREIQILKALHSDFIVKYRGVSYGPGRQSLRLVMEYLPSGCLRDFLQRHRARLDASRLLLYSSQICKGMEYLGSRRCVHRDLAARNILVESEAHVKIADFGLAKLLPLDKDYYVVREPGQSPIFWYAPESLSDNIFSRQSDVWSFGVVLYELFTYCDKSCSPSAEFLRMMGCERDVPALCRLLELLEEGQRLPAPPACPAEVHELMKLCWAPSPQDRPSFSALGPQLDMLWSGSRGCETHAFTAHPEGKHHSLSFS
Description: Inhibition of TEL-fused JAK3 kinase domain (2520 to 3469 nucleotide) (unknown origin) expressed in mouse BaF3 cells assessed as decrease in cell growth at 20 uM after 40 hrs by MTT assay relative to control. Format: cell-based.

Test [4] in a line: Cytotoxicity against human PC3 cells assessed as growth inhibition at 20 uM after 40 hrs by MTT assay relative to control. Format: functional. Conditions: PC-3, 40 h, read-out: GI. In outline: as §1
In test [5] the target is Tubulin (Homo sapiens) (UniProt P68371+Q9H4B7+P0DPH7+P68366+Q13509+Q71U36+P04350+Q3ZCM7+P07437+P68363+Q9BQE3+Q6PEY2+Q13885+Q9BVA1+Q9BUF5). Description: Inhibition of tubulin (unknown origin) polymerization at 50 uM by turbidometric method relative to control. Format: protein-complex assay. In outline: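 Compound was incubated at 0° C. with microtubule protein whose origin is not stated. In cuvettes, 1 mM GTP was added and the temperature raised to 37° C. to start polymerisation, and a thermostatically controlled spectrophotometer followed absorbance at 340 nm over time. The values give inhibition of polymerisation as percent relative to control.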

Test [6] in a line: Cytotoxicity against human K562 cells assessed as growth inhibition at 20 uM after 40 hrs by MTT assay relative to control. Format: functional. Particulars: K562, 40 h, read-out: GI. In outline:
as §1

For orientation: inhibition means the change of the read-out against control, counted positive when it falls. In the case of `CCC[C@H](Nc1cncc(-c2ccc(NC(=O)NC)c(OC)c2)n1)c1ccccn1`, the inhibition of growth at 20 µM in test [1], in test [4] and in test [6] was above 50% throughout. Besides, the inhibition in test [2], in test [3] and in test [5] was above 50% throughout.

On to `CCCC(Nc1cncc(-c2ccc(OCCN(CC)CC)c(OC)c2)n1)c1ccccc1` (stereo not given), for which the inhibition of growth at 20 µM in test [4] is above 50%. This compound also yielded an inhibition in test [5] above 50%.

As for `CCCC(Nc1cncc(-c2ccc(NC(=O)NCC)c(OC)c2)n1)c1cccnc1C` (stereo not given), the inhibition of growth at 20 µM in test [4] is above 50%. Besides, the inhibition in test [5] is above 50%.

`CCC[C@H](Nc1cncc(-c2ccc(NC(=O)NCC)c(OC)c2)n1)c1cccnc1`: in test [4], the inhibition of growth at 20 µM was above 50%. In test [5], the inhibition is above 50%.

With `CCCC(Nc1cncc(-c2ccc(OCCCCN3CCCC3)c(OC)c2)n1)c1ccccc1` (stereo not given), the inhibition of growth at 20 µM in test [4] was above 50%. The inhibition in test [5] is above 50%.

As to `CCC[C@H](Nc1nc(-c2ccc(O)c(OC)c2)ncc1C)c1cccnc1`, the inhibition of growth at 20 µM in test [4] was above 50%. In addition, the inhibition in test [5] is above 50%.

Turning to `CCCC(Nc1cncc(-c2ccc(CN)c(OC)c2)n1)c1cccnc1` (stereo not given), in test [4], the inhibition of growth at 20 µM was above 50%. In addition, in test [5], the inhibition was above 50%.

On to `COc1cc(-c2cncc(N[C@@H](C)c3ccccc3)c2)ccc1O`, for which, in test [4], the inhibition of growth at 20 µM was above 50%. This compound had an inhibition in test [5] above 50%.

As for `CCCC(Nc1cncc(-c2ccc(CN3CCCC3)cc2)n1)c1ccccc1` (stereo not given), in test [4], the inhibition of growth at 20 µM is above 50%. This compound showed an inhibition in test [5] above 50%.

Regarding `COc1cc(-c2nccc(N[C@@H](C)c3ccccc3)n2)ccc1O`, the inhibition of growth at 20 µM in test [4] is above 50%. Also, in test [5], the inhibition is above 50%.

Turning to `CCCC(Nc1cncc(-c2ccc(NC(=O)NCC)c(C)c2)n1)c1ccccn1` (stereo not given), the inhibition of growth at 20 µM in test [4] is above 50%. Moreover, in test [5], the inhibition is above 50%.

Regarding `CCCC(Nc1cncc(-c2ccc(NC(=O)NCC)c(OC)c2)n1)c1cncc(C)c1` (stereo not given), in test [4], the inhibition of growth at 20 µM is above 50%. In test [5], this compound had an inhibition above 50%.

For `CCCC(Nc1cc(-c2ccc(O)c(OC)c2)ncn1)c1cccnc1` (stereo not given), in test [4], the inhibition of growth at 20 µM is above 50%. In addition, the inhibition in test [5] is above 50%.

Turning to `CCC[C@H](Nc1cncc(-c2ccc(NC(=O)NCC)c(OC)c2)n1)c1ccccn1`, the inhibition of growth at 20 µM in test [4] was above 50%. Also, in test [5], the inhibition is above 50%.

Turning to `CCCC(Nc1cncc(-c2cc(C)c(O)c(C)c2)c1)c1ccccc1` (stereo not given), the inhibition of growth at 20 µM in test [4] was above 50%. The same compound came in with an inhibition in test [5] above 50%.

Regarding `CCC[C@H](Nc1cc(-c2ccc(NC(=O)NCC)c(OC)c2)ncn1)c1cccnc1`, the inhibition of growth at 20 µM in test [4] is above 50%. In test [5], this compound yielded an inhibition above 50%.

As to `CCC[C@H](Nc1nc(-c2ccc(NC(=O)NCC)c(OC)c2)ncc1C)c1cccnc1` [LEXIBULIN], the inhibition of growth at 20 µM in test [4] was above 50%. Also, the inhibition in test [5] is above 50%.

`CCCC(Nc1cncc(-c2ccc(OCCCCN3CCN(C)CC3)c(OC)c2)n1)c1ccccc1` (stereo not given): the inhibition of growth at 20 µM in test [4] was above 50%. The compound further showed an inhibition in test [5] above 50%.

For the compound `CCCC(Nc1cncc(-c2ccc(O)c(OC)c2)c1)c1ccccc1` (stereo not given), the inhibition of growth at 20 µM in test [4] was above 50%. Besides, the inhibition in test [5] is above 50%.

For `CCNC(=O)Nc1ccc(-c2cncc(N[C@@H](CC)c3cccnc3)n2)cc1OC`, the inhibition of growth at 20 µM in test [4] was above 50%. In test [5], this compound yielded an inhibition above 50%.

For `CCCC(Nc1cncc(-c2ccc(OCCCN(CC)CC)c(OC)c2)n1)c1ccccc1` (stereo not given), the inhibition of growth at 20 µM in test [4] is above 50%. In test [5], the inhibition was above 50%.

For the compound `CCCC(Nc1cncc(-c2ccc(CO)cc2)n1)c1ccccc1` (stereo not given), the inhibition of growth at 20 µM in test [4] is above 50%. Further, the inhibition in test [5] is above 50%.

For the compound `CCCC(Nc1cncc(-c2ccc(NC(=O)NCCN(C)C)c(OC)c2)n1)c1cccnc1` (stereo not given), the inhibition of growth at 20 µM in test [4] was above 50%. Moreover, the inhibition in test [5] was above 50%.

For the compound `CC[C@H](Nc1nc(-c2ccc(O)c(OC)c2)ncc1C)c1cccnc1`, the inhibition of growth at 20 µM in test [4] was above 50%. In addition, in test [5], the inhibition is above 50%.

With `CCCC(Nc1cncc(-c2ccc(OCCCO)c(OC)c2)n1)c1ccccc1` (stereo not given), the inhibition of growth at 20 µM in test [4] was above 50%. In test [5], this compound came in with an inhibition above 50%.

With `CCCC(Nc1cncc(-c2ccc(OCCCn3ccnc3)c(OC)c2)n1)c1ccccc1` (stereo not given), the inhibition of growth at 20 µM in test [4] is above 50%. In test [5], the inhibition was above 50%.

With `CCCC(Nc1cncc(-c2ccc(OCCCCN)c(OC)c2)n1)c1ccccc1` (stereo not given), in test [4], the inhibition of growth at 20 µM is above 50%. The compound further had an inhibition in test [5] above 50%.

With `CCCC(Nc1nnc(C)c(-c2ccc(O)c(OC)c2)n1)c1ccccc1` (stereo not given), the inhibition of growth at 20 µM in test [4] was above 50%. Moreover, the inhibition in test [5] is above 50%.

Turning to `CCCC(Nc1cncc(-c2ccc(CN)cc2)n1)c1ccccc1` (stereo not given), the inhibition of growth at 20 µM in test [4] is above 50%. For the same compound, in test [5], the inhibition was above 50%.

Consider `CCCC(Nc1nc(-c2ccc(NC(=O)NCC)c(OC)c2)cnc1C)c1ccccc1` (stereo not given), for which the inhibition of growth at 20 µM in test [4] is above 50%. The inhibition in test [5] was above 50%.

`CCCC(Nc1cncc(-c2ccc(NC(=O)NCC)c(C)c2)n1)c1cnccc1C` (stereo not given): in test [4], the inhibition of growth at 20 µM was above 50%. This compound returned an inhibition in test [5] above 50%.

Regarding `CCCC(Nc1cncc(-c2ccc(OCCCCO)c(OC)c2)n1)c1ccccc1` (stereo not given), the inhibition of growth at 20 µM in test [4] is above 50%. The same compound had an inhibition in test [5] above 50%.

As to `CCNC(=O)Nc1ccc(-c2ncc(C)c(N[C@@H](CC)c3cccnc3)n2)cc1OC`, the inhibition of growth at 20 µM in test [4] was above 50%. For the same compound, in test [5], the inhibition is above 50%.

As to `CCCC(Nc1cncc(-c2ccc(CNC(=O)C3CCNCC3)cc2)n1)c1ccccc1` (stereo not given), the inhibition of growth at 20 µM in test [4] was above 50%. In test [5], this compound yielded an inhibition above 50%.

For the compound `COc1cc(-c2cc(N[C@@H](C)c3ccccc3)ncn2)ccc1O`, in test [4], the inhibition of growth at 20 µM was above 50%. The compound also displayed an inhibition in test [5] above 50%.

Take `CCNC(=O)Nc1ccc(-c2cncc(N[C@@H](COCC)c3ccccc3)n2)cc1OC`: the inhibition of growth at 20 µM in test [4] was above 50%. In test [5], this compound gave an inhibition above 50%.

For `COc1cc(-c2cncc(NC(C)c3cccc(NC(=O)c4ccncc4)c3)n2)ccc1O` (stereo not given), in test [1], the inhibition of growth at 20 µM was above 50%. The inhibition in test [2], in test [3] and in test [5] was above 50% throughout.
